One test has as its target human cyclin D1-CDK4 (Homo sapiens, UniProt P11802). Put plainly: FlashPlate kinase assay, cyclin D1-CDK4. The format is biochemical. Conditions: Rb protein substrate, 1 μM ATP. How it is done:
(§1) To determine inhibition of Cdk4, Cdk2 and Cdk1 activity, kinase assays were conducted using FlashPlate™ assays (NEN™-Life Science Products). FlashPlate assays were performed using recombinant human cyclin B-CDK1, human cyclin E-CDK2 or human cyclin D1-CDK4 complexes. GST-cyclinE (GST-cycE), CDK2, GST-cyclinB (GST-cycB), CDK1, GST-CDK4 and cyclin D1 (cycD1) cDNA clones in baculovirus vectors were provided by Dr. W. Harper at the Baylor College of Medicine, Houston, Tex.
(§2) The expression of the 62Kd protein was under the control of an IPTG inducible promoter in an M15 E. coli strain. Cells were lysed by sonication and purification was carried out by binding lysates at pH 8.0 to a Ni-chelated agarose column pretreated with 1 mM imidazole. The resin was then washed several times with incrementally decreasing pH buffers to pH 6.0, and eluted with 500 mM imidazole. Eluted protein was dialysed against 20 mM HEPES pH 7.5, 30% glycerol, 200 mM NaCl, and 1 mM DTT. Purified Rb fusion protein stocks were quantitated for protein concentration, aliquoted, and stored at −70° C.
(§3) For all three kinase assays reported herein, 96-well FlashPlates were coated with Rb protein at 10 μg/ml, using 100 μl per well. Plates were incubated at 4° C. overnight or at room temperature for 3 hours on a shaker. To control for nonspecific phosphorylation, one row of wells was coated with 100 μl/well coating buffer (20 mM HEPES, 0.2 M NaCl). Plates were then washed twice with wash buffer (0.01% Tween 20 in phosphate-buffered saline). Compounds to be tested (“test compounds”) were added to the wells at 5×final concentration. Reactions were initiated by immediate addition of 40 μl reaction mix (25 mM HEPES, 20 mM MgCl2, 0.002% Tween 20, 2 mM DTT, 1 μM ATP, 4 nM ^33P-ATP) and a sufficient amount of enzyme to give counts that were at least 10-fold above background. Plates were incubated at room temperature on a shaker for 30 minutes. Plates were washed four times with the wash buffer, sealed, and counted on the TopCount scintillation counter (Packard Instrument Co., Downers Grove, Ill.]. The percent inhibition of Rb phosphorylation, which is a measure of the inhibition of CDK activity, was determined according to the following formula: [formula]
(§4) where “test compound” refers to the average counts per minute of the test duplicates, “nonspecific” refers to the average counts per minute when no CyclinD/Cdk4, etc., was added, and “total” refers to the average counts per minute when no compound was added.

The next test deals with human cyclin E-CDK2 (Homo sapiens, UniProt P24941). Put plainly: FlashPlate kinase assay, cyclin E-CDK2. The test is classed as biochemical. Conditions: Rb protein substrate, 1 μM ATP. How it is done:
as §1, §2, §3, §4

For the next test, the target named is human cyclin B-CDK1 (Homo sapiens, UniProt P06493). Put plainly: FlashPlate kinase assay, cyclin B-CDK1. The test is classed as biochemical. The settings on record: Rb protein substrate, 1 μM ATP. How it is done:
as §1, §2, §3, §4

Another test deals with HCT116. Put plainly: Tetrazolium dye (MTT) proliferation assay. The test is classed as cell-based. The settings on record: Homo sapiens, HCT-116; HCT116 colorectal carcinoma cell line. On the procedure: The cell line used was HCT116, a colorectal carcinoma cell line obtained from the American Type Cell Culture Collection (ATCC;
Rockville, Md.). The cells were grown in McCoy's 5A medium supplemented with 10% FCS and L-glutamine.
Cells were plated at the appropriate seeding density to give logarithmic growth over the course of the assay in a 96-well tissue culture plate. Plates were incubated overnight at 37° C. in a humidified incubator with 5% CO2. The next day, test compounds were serially diluted to four times the final concentration in the appropriate medium containing 1.2% DMSO. One-fourth final volume of each dilution was added in duplicate to the plates containing cells. The same volume of 1.2% DMSO in medium was added to a row of “control wells” such that the final concentration of DMSO in each well was 0.3%. Wells to which no cells were added served as the “blank.” Wells to which no inhibitor was added served as “no inhibitor control.” The plates were) returned to the incubator, and at set time points (determined by their growth curves) plates were analyzed as described below.
3-(4,5-dimethylthiazole-2-yl)-2,5-diphenyl-2H-tetrazolium bromide (thiazolyl blue; MTT; Sigma) was added to each well to yield a final concentration of 1 mg/ml. Plates were returned to the incubator for 2.5-3 hours at 37° C. The MTT-containing medium was removed and the resulting formazan metabolite was solubilized in 100% ethanol with shaking for 15 minutes at room temperature. Absorbance readings were taken in a microtiter plate reader (Dynatech and Molecular Devices plate readers were used interchangeably) at a wavelength of 570 nm with a 650 nm reference. Percent inhibition (% INH) is calculated by subtracting the absorbance of the blank well from all wells, then subtracting the ratio of the average absorbance of each test duplicate (SAVE) by the average of the controls (CAVE) from 1.00. The final number is then multiplied by 100 (% INH=(1.00−SAVE/CAVE)×100).

Chain of human cyclin D1-CDK4 (P11802 whole entry): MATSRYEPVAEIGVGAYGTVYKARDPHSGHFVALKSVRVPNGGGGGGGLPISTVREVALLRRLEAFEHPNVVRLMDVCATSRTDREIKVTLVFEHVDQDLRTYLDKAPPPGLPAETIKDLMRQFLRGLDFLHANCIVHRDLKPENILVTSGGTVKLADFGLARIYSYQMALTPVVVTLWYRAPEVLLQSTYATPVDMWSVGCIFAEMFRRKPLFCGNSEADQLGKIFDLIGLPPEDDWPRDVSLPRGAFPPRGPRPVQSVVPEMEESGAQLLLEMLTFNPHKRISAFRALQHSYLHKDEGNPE
Chain of human cyclin D1-CDK4 (P24385 whole entry partner): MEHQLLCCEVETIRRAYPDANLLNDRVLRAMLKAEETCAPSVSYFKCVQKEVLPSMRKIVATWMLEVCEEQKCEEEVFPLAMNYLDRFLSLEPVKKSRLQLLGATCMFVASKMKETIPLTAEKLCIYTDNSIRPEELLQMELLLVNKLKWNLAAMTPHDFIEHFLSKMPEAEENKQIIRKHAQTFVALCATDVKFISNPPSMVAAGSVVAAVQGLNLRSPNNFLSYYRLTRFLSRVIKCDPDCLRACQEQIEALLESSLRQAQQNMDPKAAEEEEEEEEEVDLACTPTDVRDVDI
Chain of human cyclin B-CDK1 (P06493 whole entry): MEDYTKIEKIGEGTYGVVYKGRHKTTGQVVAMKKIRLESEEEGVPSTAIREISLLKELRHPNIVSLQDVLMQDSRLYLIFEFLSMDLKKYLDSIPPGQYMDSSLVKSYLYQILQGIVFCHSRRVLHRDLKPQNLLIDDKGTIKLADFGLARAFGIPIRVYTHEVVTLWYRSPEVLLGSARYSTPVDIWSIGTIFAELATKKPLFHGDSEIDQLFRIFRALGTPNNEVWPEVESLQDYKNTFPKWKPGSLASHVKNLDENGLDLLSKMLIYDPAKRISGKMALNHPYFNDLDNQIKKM
Chain of human cyclin B-CDK1 (P14635 whole entry partner): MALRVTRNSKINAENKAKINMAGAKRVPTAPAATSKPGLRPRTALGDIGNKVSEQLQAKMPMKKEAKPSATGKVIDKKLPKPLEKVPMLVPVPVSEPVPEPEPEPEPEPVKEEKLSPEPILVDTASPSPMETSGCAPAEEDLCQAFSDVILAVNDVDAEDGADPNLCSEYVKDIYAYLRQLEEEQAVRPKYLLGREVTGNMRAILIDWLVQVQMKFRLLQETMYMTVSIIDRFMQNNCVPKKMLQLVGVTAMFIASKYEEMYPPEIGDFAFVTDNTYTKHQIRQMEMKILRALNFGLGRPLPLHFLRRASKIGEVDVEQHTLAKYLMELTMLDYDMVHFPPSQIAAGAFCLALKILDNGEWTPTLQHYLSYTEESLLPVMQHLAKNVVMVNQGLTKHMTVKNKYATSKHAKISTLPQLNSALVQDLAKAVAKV

For orientation: IC50 means the concentration needed to halve the response being measured. Read a low IC50 as greater potency. As to `COc1cc(OC)cc(C(=O)c2sc(Nc3ccc(N4CCN(C)CC4)c(F)c3)nc2N)c1` [Example 39, [4-Amino-2-[[3-fluoro-4-(4-methyl-1-piperazinyl)phenyl]amino]-5-thiazolyl](3,5-dimethoxyphenyl)methanone], the 50% inhibitory concentration (IC50) on human cyclin D1-CDK4 was 21 nM; at human cyclin E-CDK2, 7900 nM; against human cyclin B-CDK1, 2800 nM; in the test on HCT116, 3600 nM.

On to `COc1cccc(C(=O)c2sc(Nc3ccc(N4CCN(C)CC4)c(F)c3)nc2N)c1` [Example 40, [4-Amino-2-[[3-fluoro-4-(4-methyl-1-piperazinyl)phenyl]amino]-5-thiazolyl](3-methoxyphenyl)methanone], for which the IC50 on human cyclin D1-CDK4 came out at 14 nM; at human cyclin E-CDK2, 3100 nM; against human cyclin B-CDK1 it was 1300 nM; with HCT116 it was 3000 nM.

For `CC(C)N1CCN(c2ccc(Nc3nc(N)c(C(=O)c4ccc5c(c4)OCCO5)s3)cc2)CC1` [Example 41, [4-Amino-2-[[4-[4-(1-methylethyl)-1-piperazinyl]phenyl]amino]-5-thiazolyl](2,3-dihydro-1,4-benzodioxin-6-yl)methanone], the IC50 at human cyclin D1-CDK4 turned out to be 15 nM; at human cyclin E-CDK2, 3700 nM; against human cyclin B-CDK1, 2900 nM; in the test with HCT116, 3000 nM.

As for `CC(C)N1CCN(c2ccc(Nc3nc(N)c(C(=O)c4ccc5c(c4)OCO5)s3)cc2)CC1` [Example 42, [4-Amino-2-[[4-[4-(1-methylethyl)-1-piperazinyl]phenyl]amino]-5-thiazolyl](1,3-benzodioxol-5-yl)methanone], the concentration for half-maximal inhibition (IC50) was determined as 10 nM at human cyclin D1-CDK4, 2900 nM against human cyclin E-CDK2, 1900 nM against human cyclin B-CDK1 and 1500 nM in the test with HCT116.

Consider `COc1cccc(C(=O)c2sc(Nc3ccc(N4CCN(C(C)C)CC4)cc3)nc2N)c1` [Example 43, [4-Amino-2-[[4-[4-(1-methylethyl)-1-piperazinyl]phenyl]amino]-5-thiazolyl](3-methoxyphenyl)methanone], for which the IC50 was 21 nM at human cyclin D1-CDK4, 3400 nM against human cyclin E-CDK2, 1900 nM against human cyclin B-CDK1 and 1300 nM in the test with HCT116.

With `COc1cc(OC)cc(C(=O)c2sc(Nc3ccc(N4CCN(C(C)C)CC4)cc3)nc2N)c1` [Example 44, [4-Amino-2-[[4-[4-(1-methylethyl)-1-piperazinyl]phenyl]amino]-5-thiazolyl](3,5-dimethoxyphenyl)methanone], the concentration for half-maximal inhibition (IC50) against human cyclin D1-CDK4 was found to be 28 nM; at human cyclin E-CDK2, 11900 nM; against human cyclin B-CDK1, 1800 nM; in the test on HCT116 it was 3800 nM.

For `CC(=O)Nc1ccc(C(=O)c2sc(Nc3ccc(N4CCN(C(C)C)CC4)cc3)nc2N)cc1` [Example 45], the IC50 on human cyclin D1-CDK4 worked out at 25 nM; against human cyclin E-CDK2 it was 4900 nM; against human cyclin B-CDK1 it was 5600 nM; with HCT116, 2900 nM.

Take `CCN(CC)c1ccc(C(=O)c2sc(Nc3ccc(N4CCN(C(C)C)CC4)cc3)nc2N)cc1` [Example 46, [4-Amino-2-[[4-[4-(1-methylethyl)-1-piperazinyl]phenyl]amino]-5-thiazolyl][4-(diethylamino)phenyl]methanone]: the half-maximal inhibitory concentration (IC50) on human cyclin D1-CDK4 was 14 nM; at human cyclin E-CDK2 it was 5200 nM; against human cyclin B-CDK1, 3600 nM; in the test on HCT116, 3600 nM.

As to `CC(=O)N1CCN(c2ccc(Nc3nc(N)c(C(=O)c4ccc5c(c4)OCO5)s3)cc2)CC1` [Example 47, 1-Acetyl-4-[4-[[4-amino-5-[(1,3-benzodioxol-5-yl)carbonyl]-2-thiazolyl]amino]phenyl]piperazine], the half-maximal inhibitory concentration (IC50) against human cyclin D1-CDK4 was 43 nM; against human cyclin E-CDK2, 900 nM; at human cyclin B-CDK1, 500 nM; with HCT116, 2800 nM.

As to `CCN(CC)c1ccc(C(=O)c2sc(Nc3ccc(N4CCN(C(C)=O)CC4)cc3)nc2N)cc1` [Example 48, 1-Acetyl-4-[4-[[4-amino-5-[4-(diethylamino)benzoyl]-2-thiazolyl]amino]phenyl]piperazine], the IC50 against human cyclin D1-CDK4 worked out at 10 nM; against human cyclin E-CDK2, 7100 nM; against human cyclin B-CDK1, 2300 nM; in the test on HCT116, 13300 nM.

Regarding `Nc1nc(Nc2ccc(N3CCN(CCO)CC3)cc2)sc1C(=O)c1ccc2c(c1)OCCO2` [Example 49, [4-Amino-2-[[4-[4-(2-hydroxyethyl)-1-piperazinyl]phenyl]amino]-5-thiazolyl](2,3-dihydro-1,4-benzodioxin-6-yl)methanone], the IC50 was 15 nM against human cyclin D1-CDK4, 1500 nM against human cyclin E-CDK2, 2100 nM on human cyclin B-CDK1 and 5300 nM in the test on HCT116.

On to `Nc1nc(Nc2ccc(N3CCN(CCO)CC3)cc2)sc1C(=O)c1ccc(N2CCCC2)cc1` [Example 50, [4-Amino-2-[[4-[4-(2-hydroxyethyl)-1-piperazinyl]phenyl]amino]-5-thiazolyl][4-(1-pyrrolidinyl)phenyl]methanone], for which the half-inhibitory concentration (IC50) against human cyclin D1-CDK4 stood at 30 nM; at human cyclin E-CDK2, 2500 nM; at human cyclin B-CDK1 it was 5500 nM; with HCT116, 9300 nM.

Consider `Nc1nc(Nc2ccc(N3CCN(CCO)CC3)cc2)sc1C(=O)c1cccc(F)c1` [Example 51], for which the half-maximal inhibitory concentration (IC50) on human cyclin D1-CDK4 stood at 20 nM; at human cyclin E-CDK2, 500 nM; on human cyclin B-CDK1, 900 nM; with HCT116, 900 nM.

Regarding `Nc1nc(Nc2ccc(N3CCN(CCO)CC3)cc2)sc1C(=O)c1cc(F)cc(F)c1` [Example 52, [4-Amino-2-[[4-[4-(2-hydroxyethyl)-1-piperazinyl]phenyl]amino]-5-thiazolyl](3,5-difluorophenyl)methanone], the IC50 against human cyclin D1-CDK4 was found to be 28 nM; against human cyclin E-CDK2, 700 nM; on human cyclin B-CDK1, 1200 nM; with HCT116, 2300 nM.

As to `COc1cccc(C(=O)c2sc(Nc3ccc(N4CCN(CCO)CC4)cc3)nc2N)c1` [Example 53, [4-Amino-2-[[4-[4-(2-hydroxyethyl)-1-piperazinyl]phenyl]amino]-5-thiazolyl](3-methoxyphenyl)methanone], the IC50 against human cyclin D1-CDK4 worked out at 6 nM; on human cyclin E-CDK2, 1300 nM; on human cyclin B-CDK1 it was 2300 nM; in the test with HCT116 it was 2500 nM.

With `Nc1nc(Nc2ccc(N3CCNCC3)cc2)sc1C(=O)c1cccc(F)c1` [Example 54, [4-Amino-2-[[4-(1-piperazinyl)phenyl]amino]-5-thiazolyl](3-fluorophenyl)methanone], the half-maximal inhibitory concentration (IC50) against human cyclin D1-CDK4 came to 13 nM; on human cyclin E-CDK2, 200 nM; at human cyclin B-CDK1, 300 nM; in the test with HCT116, 700 nM.

Regarding `Nc1nc(Nc2ccc(N3CCNCC3)cc2)sc1C(=O)c1ccc(N2CCCC2)cc1` [Example 55, [4-Amino-2-[[4-(1-piperazinyl)phenyl]amino]-5-thiazolyl][4-(1-pyrrolidinyl)phenyl]methanone], the IC50 against human cyclin D1-CDK4 worked out at 50 nM; on human cyclin E-CDK2, 3200 nM; at human cyclin B-CDK1, 4300 nM; in the test with HCT116 it was 3800 nM.

`COc1ccc(C(=O)c2sc(Nc3ccc(N4CCNCC4)cc3)nc2N)cc1F` [Example 56, [4-Amino-2-[[4-(1-piperazinyl)phenyl]amino)-5-thiazolyl](3-fluoro-4-methoxyphenyl)methanone]: the IC50 against human cyclin D1-CDK4 was 14 nM; on human cyclin E-CDK2, 800 nM; against human cyclin B-CDK1, 1000 nM; with HCT116, 800 nM.

The values are drawn from patent US6756374B2, “Diaminothiazoles having antiproliferative activity” (Hoffmann-La Roche Inc., priority 2001, dated 2004).
